Structures can show the parent of a compound that is named as a salt.
SMILES | melting point [°C]
CC(C)c1cccc2c1Oc1ccc(C(=O)NC(=N)N)cc1S(=O)(=O)C2.CS(=O)(=O)O [Example 8, N-(4-Isopropyl-10,10-dioxo-10,11-dihydro-5-oxa-10lambda*6*-thia-dibenzo[a,d]cycloheptene-8-carbonyl)-guanidine, methanesulfonic acid salt] | 220 to 222
CS(=O)(=O)O.CS(=O)(=O)O.Cc1cc(C(=O)NC(=N)N)cc2c1Oc1c(Cl)cc(N3CCN(CC4CC4)CC3)cc1CS2(=O)=O [Example 123, N-[4-Chloro-2-(4-cyclopropylmethyl-piperazin-1-yl)-6-methyl-10,10-dioxo-10,11-dihydro-5-oxa-10lambda*6*-thia-dibenzo[a,d]cycloheptene-8-carbonyl]-guanidine dimesylate] | 282 to 287
CS(=O)(=O)O.CS(=O)(=O)O.Cc1cc(C(=O)NC(=N)N)cc2c1Oc1c(Cl)cc(NC(=O)CNC(C)C)cc1CS2(=O)=O [Example 141, N-(4-Chloro-8-guanidinocarbonyl-6-methyl-10,10-dioxo-10,11-dihydro-5-oxa-10lambda*6*-thia-dibenzo[a,d]cyclohepten-2-yl)-2-isopropylamino-acetamide dimesylate] | 192 to 194
CS(=O)(=O)O.CS(=O)(=O)O.Cc1cc(C(=O)NC(=N)N)cc2c1Oc1c(Cl)cc(N3CCN(C4CCC4)CC3)cc1CS2(=O)=O [Example 129, N-[4-Chloro-2-(4-cyclobutyl-piperazin-1-yl)-6-methyl-10,10-dioxo-10,11-dihydro-5-oxa-10lambda*6*-thia-dibenzo[a,d]cycloheptene-8-carbonyl]-guanidine dimesylate] | 275 to 277
CC(=O)N(CCN1CCOCC1)c1cc(Cl)c2c(c1)CS(=O)(=O)c1cc(C(=O)NC(=N)N)cc(C)c1O2.CS(=O)(=O)O.CS(=O)(=O)O [Example 68, N-(4-Chloro-8-guanidinocarbonyl-6-methyl-10,10-dioxo-10,11-dihydro-5-oxa-10lambda*6*-thia-dibenzo[a,d]cyclohepten-2-yl)-N-(2-morpholin-4-yl-ethyl)-acetamide dimesylate] | 198 to 200
NC(N)=NC(=O)c1cc(Cl)c2c(c1)S(=O)(=O)Cc1cccc(Cl)c1O2 (as salt: sulfonic acid salt) [Example 45, 4,6-Dichloro-10,10-dioxo-10,11-dihydro-5-oxa-10lambda*6*-thia-dibenzo[a,d]cycloheptene-8-carbonylguanidine, methane sulfonic acid salt] | 270 to 271
CCN(CCN1CCCC1)c1cc(Cl)c2c(c1)CS(=O)(=O)c1cc(C(=O)N=C(N)N)cc(C)c1O2 (as salt: mesylate) [Example 73, N-{4-Chloro-2-[ethyl-(2-pyrrolidin-1-yl-ethyl)-amino]-6-methyl-10,10-dioxo-10,11-dihydro-5-oxa-10lambda*6*-thia-dibenzo[a,d]cycloheptene-8-carbonyl}-guanidine dimesylate] | 258 to 260
CS(=O)(=O)O.CS(=O)(=O)O.Cc1cc(C(=O)NC(=N)N)cc2c1Oc1c(Cl)cc(N3CCN(CCO)CC3)cc1CS2(=O)=O [Example 197, N-{4-Chloro-2-[4-(2-hydroxy-ethyl)-piperazin-1-yl]-6-methyl-10,10-dioxo-10,11-dihydro-5-oxa-10lambda*6*-thia-dibenzo[a,d]cycloheptene-8-carbonyl}-guanidine dimesylate] | 185 to 187
Cc1cc(C(=O)N=C(N)N)cc2c1Oc1c(Cl)cc(N)cc1CS2(=O)=O (as salt: sulfonic acid salt) [Example 35, N-(2-Amino-4-chloro-6-methyl-10,10-dioxo-10,11-dihydro-5-oxa-10lambda*6*-thia-dibenzo[a,d]cycloheptene-8-carbonyl)-guanidine, methane sulfonic acid salt] | 190 to 192
COCC(=O)N(CCN1CCOCC1)c1cc(Cl)c2c(c1)CS(=O)(=O)c1cc(C(=O)NC(=N)N)cc(C)c1O2.CS(=O)(=O)O.CS(=O)(=O)O [Example 69, N-(4-Chloro-8-guanidinocarbonyl-6-methyl-10,10-dioxo-10,11-dihydro-5-oxa-10lambda*6*-thia-dibenzo[a,d]cyclohepten-2-yl)-2-methoxy-N-(2-morpholin-4-yl-ethyl)-acetamide dimesylate] | 168 to 169
CS(=O)(=O)O.CS(=O)(=O)O.Cc1cc(C(=O)NC(=N)N)cc2c1Oc1c(Cl)cc(NC(=O)CN3CCCC3)cc1CS2(=O)=O [Example 147, N-(4-Chloro-8-guanidinocarbonyl-6-methyl-10,10-dioxo-10,11-dihydro-5-oxa-10lambda*6*-thia-dibenzo[a,d]-cyclohepten-2-yl)-2-pyrrolidine-1-yl-acetamide dimesylate] | 190 to 192
Cc1cc(C(=O)N=C(N)N)cc2c1Oc1c(Cl)cc(S(=O)(=O)NCc3cccnc3)cc1CS2(=O)=O (as salt: mesylate) [Example 52, 4-Chloro-8-guanidinocarbonyl-6-methyl-10,10-dioxo-10,11-dihydro-5-oxa-10lambda*6*-thia-dibenzo[a,d]cycloheptene-2-sulfonic acid (pyridin-3-ylmethyl)-amide dimesylate] | 271 to 273
CS(=O)(=O)O.CS(=O)(=O)O.Cc1cc(C(=O)NC(=N)N)cc2c1Oc1c(Cl)cc(NC(=O)CN(C)C)cc1CS2(=O)=O [Example 142, N-(4-Chloro-8-guanidinocarbonyl-6-methyl-10,10-dioxo-10,11-dihydro-5-oxa-10lambda*6*-thia-dibenzo[a,d]cyclohepten-2-yl)-2-dimethylamino-acetamide dimesylate] | 190 to 191
CS(=O)(=O)O.CS(=O)(=O)O.CS(=O)(=O)O.Cc1cc(C(=O)NC(=N)N)cc2c1Oc1c(Cl)cc(NCCNCCc3ccccn3)cc1CS2(=O)=O [Example 83, N-{4-Chloro-6-methyl-10,10-dioxo-2-[2-(2-pyridin-2-yl-ethylamino)-ethylamino]-10,11-dihydro-5-oxa-10lambda*6*-thia-dibenzo[a,d]cycloheptene-8-carbonyl}-guanidine trimesylate] | 196 to 198
Cc1cc2c(cc1C(=O)N=C(N)N)S(=O)(=O)Cc1ccccc1O2 (as salt: sulfonic acid salt) [Example 27, N-(7-Methyl-10,10-dioxo-10,11-dihydro-5-oxa-10lambda*6*-thia-dibenzo[a,d]cycloheptene-8-carbonyl)-guanidine, methane sulfonic acid salt] | 272 to 274
CS(=O)(=O)O.CS(=O)(=O)O.Cc1cc(C(=O)NC(=N)N)cc2c1Oc1c(Cl)cc(N3CCN(C4CC4)CC3)cc1CS2(=O)=O [Example 125, N-[4-Chloro-2-(4-cyclopropyl-piperazin-1-yl)-6-methyl-10,10-dioxo-10,11-dihydro-5-oxa-10lambda*6*-thia-dibenzo[a,d]cycloheptene-8-carbonyl]-guanidine dimesylate] | 245 to 248
CS(=O)(=O)O.CS(=O)(=O)O.Cc1cc(C(=O)NC(=N)N)cc2c1Oc1c(Cl)cc(N(CCN(C)C)C(=O)C(C)(C)C)cc1CS2(=O)=O [Example 101, N-(4-Chloro-8-guanidinocarbonyl-6-methyl-10,10-dioxo-10,11-dihydro-5-oxa-10lambda*6*-thia-dibenzo[a,d]cyclohepten-2-yl)-N-(2-dimethylamino-ethyl)-2,2-dimethyl-propionamide dimesylate] | 171 to 173
CS(=O)(=O)O.CS(=O)(=O)O.CS(=O)(=O)O.Cc1cc(C(=O)NC(=N)N)cc2c1Oc1c(Cl)cc(N(CCN3CCCC3)C(=O)CNC3CC3)cc1CS2(=O)=O [Example 150, N-(4-Chloro-8-guanidinocarbonyl-6-methyl-10,10-dioxo-10,11-dihydro-5-oxa-10-lambda*6*-thia-dibenzo[a,d]cycloheptene-2-yl)-2-cyclopropylamino-N-(2-pyrrolidin-1-yl-ethyl)-acetamide trimesylate] | 150 to 152
CC(=O)N(CCN(C)C)c1cc(Cl)c2c(c1)CS(=O)(=O)c1cc(C(=O)NC(=N)N)cc(C)c1O2.CS(=O)(=O)O.CS(=O)(=O)O.CS(=O)(=O)O [Example 100, N-(4-Chloro-8-guanidinocarbonyl-6-methyl-10,10-dioxo-10,11-dihydro-5-oxa-10lambda*6*-thia-dibenzo[a,d]cyclohepten-2-yl)-N-(2-dimethylamino-ethyl)-acetamide trimesylate] | 128 to 130
COCC(=O)N(CCN1CCCC1)c1cc(Cl)c2c(c1)CS(=O)(=O)c1cc(C(=O)NC(=N)N)cc(C)c1O2.CS(=O)(=O)O.CS(=O)(=O)O [Example 77, N-(4-Chloro-8-guanidinocarbonyl-6-methyl-10,10-dioxo-10,11-dihydro-5-oxa-10lambda*6*-thia-dibenzo[a,d]cyclohepten-2-yl)-2-methoxy-N-(2-pyrrolidin-1-yl-ethyl)-acetamide dimesylate] | 204 to 206
